Measurements as given in US20250250227A1, “AMINO LIPID COMPOUND, PREPARATION METHOD THEREFOR, COMPOSITION THEREOF AND USE THEREOF” (SHENZHEN SHENXIN BIOTECHNOLOGY CO., LTD., priority 2022, published 2025).

How the values were obtained:
[1] = test system: Female BALB/c mice; test: Performance evaluation of delivery to lymph nodes of Fluc mRNA lipid nanoparticle (IVIS); type: in vivo; details: Fluc mRNA LNP; for Expression intensity (lymph nodes): 75 μL IV, 6 hours after injection, IVIS; for Delivery effect on lymph nodes compared to SM102: IV, statement on Table 6
Protocol: (§1) Animal preparation: Female BALB/c mice of 6-8 weeks old were selected and raised in an SPF grade breeding room. Animal testing was conducted in strict accordance with the guidelines of national health institutions and animal ethics requirements.
In vivo Delivery: prior to injection of the test LNP formulations, the LNP formulations were gently and repeatedly inverted to thoroughly mix the formulation samples. A corresponding amount of the formulation samples were aspirated with a 1 ml insulin syringe, and the LNP formulations were injected by tail vein injection (IV), with 3 mice per formulation. Each mouse was injected with 75 μL the luciferase mRNA (Fluc mRNA)-encapsulating lipid nanoparticle formulation prepared in Experimental Example 1.
6 hours after injection of LNP formulations, mice were injected with 200 μL D-Luciferin luciferase developing substrate (Catalog No. 122799; Manufacturer: Perkin Elmer). After the substrate was injected, the mice were anesthetized with isoflurane inhalation, and the injection time of luciferase developing substrate was recorded.
The intensity of fluorescence expression induced by the lipid nanoparticle encapsulating luciferase mRNA (Fluc mRNA) with a representative amino lipid compound is shown in Table 6, with SM-102 as a control.

[2] = test system: Female BALB/c mice; test: Performance evaluation of in vivo delivery of Fluc mRNA lipid nanoparticle (IVIS, body and organs); details: Fluc mRNA LNP
Procedure, shortened: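 Female BALB/c mice, 6-8 weeks, received 75 μL Fluc mRNA-LNP by tail-vein injection, 3 mice per formulation. At 6 h, 200 μL D-luciferin was injected, mice were anesthetized with isoflurane, and IVIS bioluminescence was imaged in body and organs.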

[3] = test system: Female BALB/c mice; test: IFN-γ Elispot cellular immunity test, spleen lymphocytes of mice immunized with IN002.5.1 mRNA LNP; type: in vivo; details: 50 μL IM, spleen on 7th day after immunization, FIG. 2-4
Protocol: An IN002.5.1 mRNA-encapsulating lipid nanoparticle formulation was prepared according to the method as described in Experimental Example 1, with replacing the luciferase mRNA (Fluc mRNA) with IN002.5.1 mRNA, with a concentration of IN002.5.1 mRNA of 0.2 g/L, a mass ratio of IN002.5.1 mRNA to Lipid of 1:10, a particle size of 80-130 nm, and an encapsulation efficiency of 90% or higher.
The sequence of IN002.5.1 mRNA is one obtained by replacing all uracil (u) in SEQ ID NO. 1 with N1-methylpseudouridine. Of note is that the t (thymine) in the RNA sequence, SEQ ID NO. 1, in the Sequence Listing is actually u (uracil), according to the WIPO Standard ST. 26 for nucleotide or amino acid sequence listing.
as §1
Immunization of mice: Prior to injection of the test LNP formulations, the LNP formulations were gently and repeatedly inverted to thoroughly mix the formulation samples. A corresponding amount of the formulation samples were aspirated with a 1 ml insulin syringe, and the LNP formulations were injected by intramuscular injection (IM) […], with 8 mice per formulation. Each mouse was injected with 50 μL of the IN002.5.1 mRNA encapsulating lipid nanoparticle formulation.
Spleen acquisition: On the 7th day after immunization, 3 to 4 mice from each LNP immunization group were selected and euthanized, and their spleens were acquired in a super clean bench.
Isolation of lymphocytes: The spleens of mice were taken out in a super clean bench. 7 mL of mouse lymphocyte separation solution was added to a 6-well cell culture plate. Mouse spleen cells were ground with a syringe piston, and the suspension of the spleen cells was filtered through a cell screen and immediately transferred to a 15 mL centrifuge tube. […] RPMI 1640 medium was slowly added with keeping the liquid interface distinct. After centrifugation at 800 g with a horizontal rotor at room temperature for 30 minutes, a clear stratification can be visible. The lymphocyte layer was aspirated, then added with 10 mL RPMI 1640 medium, and inverted for washing. The cells were collected by centrifugation at 250 g for 10 min at room temperature, and the red blood cells were lysed. After completing lysis of red blood cells, the supernatant was poured, and the cells were resuspended in culture medium and counted.
Addition of stimulant and culture of lymphocyte: RPMI-1640 medium containing 10% fetal bovine serum was used to activate the pre-coated plate. After standing at room temperature for at least 30 min, the medium was removed, and a cell suspension at adjusted concentration was added ([…]). The medium used to resuspend the cells was used as a background negative control. 10 μL positive stimulant working solution (PMA+Ionomycin (dissolved in DPBS) was added to a positive control well; […] medium used to resuspend the cells was added to a negative control well; 10 µL/well of a peptide library diluted with RPMI 1640 was added to experimental wells. After all samples and the stimulant were added, the plate was covered, incubated in an incubator with 5% CO2 at 37° C. for 16-24 h.
Elispot detection after culture: The cells and the culture medium in the wells were dumped, and the wells were lysed with 200 μL/well of ice-cold deionized water at 4° C. for 10 min. The liquid in the wells were shaken out, and the wells were washed five times with PBS buffer. The wells were incubated with 100 μL/well of 1 μg/ml detection antibody for 2 h at room temperature; and after washing the plate 5 times with PBS, the wells were incubated with 100 μL/well of 1000-fold diluted enzyme labeled avidin (Streptavidin-HRP) for 1 h at room temperature. […]

[4] = Preparation and characterisation of mRNA-encapsulating lipid nanoparticle (encapsulation efficiency, particle size); type: physicochemical; details: LNP encapsulating Fluc mRNA; Lipid:DSPC:CHO-HP:M-DMG-2000 48:10:40.5:1.5
Procedure, shortened: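 Fluc mRNA in sodium acetate buffer mixed with ethanolic amino lipid:DSPC:CHO-HP:M-DMG-2000 (48:10:40.5:1.5 molar) by microfluidics, mRNA:lipid mass ratio 1:10, then dialysed 2 h against Tris-8% sucrose and 0.22 μm filtered. Final mRNA 0.2 g/L; particle size and encapsulation efficiency measured.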

SMILES | Expression intensity (lymph nodes) [1] | Delivery effect on lymph nodes compared to SM102 [1] | Liver (fluorescence expression intensity) ([2]; 75 μL IV, 6 hours after injection, IVIS, liver) | Spleen (fluorescence expression intensity) ([2]; 75 μL IV, 6 hours after injection, IVIS, spleen) | Total flux (fluorescence expression intensity) ([2]; 75 μL tail vein injection (IV), 6 hours after injection, IVIS) | (Spleen/Total Flux) * 100% ([2]; IV, 6 hours after injection) [%] | Multiple of spleen delivery/total delivery to amino lipid compound 118 ([2]; IV, relative to amino lipid compound 118) | Cellular immunity effect (IFN-γ Elispot) compared to ALC0315 [3] | Encapsulation efficiency [4] [%]
CCCCCCC(CCCCCC)OC(=O)CCCCCCCCC(CCCCCCCCC(=O)OC(CCCCCC)CCCCCC)OC(=O)N(CCCCCC(=O)OCC)CCCN(C)C [Compound 250] | 1.77E+06 | better delivery effect on lymph nodes |  |  |  |  |  |  | 
CCCCCCC(CCCCCC)OC(=O)CCCCCCCCC(CCCCCCCCC(=O)OC(CCCCCC)CCCCCC)OC(=O)N(CCCN(C)C)CC(=O)OCC [Compound 268] | 1.78E+06 | better delivery effect on lymph nodes | 2.11E+07 | 8.01E+06 | 1.23E+08 | 6.51 | 19.15 | better cellular immunity effect | 92.22
CCCCCCCCCCCOC(=O)CCCCCN(CCO)CCCCCCCC(=O)OC(CCCCCCCC)CCCCCCCC [SM-102, reference compound] | 4.94E+05 |  |  |  |  |  |  |  | 
